Source: PMC8583042, “New Hybrid Compounds Combining Fragments of Usnic Acid and Thioether Are Inhibitors of Human Enzymes TDP1, TDP2 and PARP1” (International Journal of Molecular Sciences, 2021)

Tests used:
[1] = biological target: T1, TDP1 (Homo sapiens, UniProt Q9NUW8); assay: Real-time fluorescence assay of TDP1 activity; type: biochemical; details: real-time fluorescent assay, 1.5 nM TDP1, 50 nM oligonucleotide; read-out: IC50 (TDP1)
T1 construct: made in house; host or cells: E. coli
Source text: We tested UA and all 14 newly synthesized UA derivatives for their TDP1 inhibitory properties by measuring their IC50 values using a real-time fluorescent assay. […] Compounds 10a,b are sulfoxide analogs of 7g,h.
Human recombinant tyrosyl-DNA phosphodiesterase 1 (TDP1) and human recombinant poly(ADP-ribose)-polymerase1 (PARP1) were expressed in the E. coli system and purified as described.
(§1) The biosensor (5′-[FAM] AAC GTC AGGGTC TTC C [BHQ]-3′) was synthesized in the Laboratory of Nucleic Acid Chemistry at the Institute of Chemical Biology and Fundamental Medicine (Novosibirsk, Russia) and was used for TDP1 enzyme activity real-time fluorescence detection. The reaction mixture (200 μL) contained a TDP1 reaction buffer (50 mM Tris-HCl, pH 8.0, 50 mM NaCl, and 7 mM β-mercaptoethanol), 50 nM oligonucleotide, varied concentrations of the tested compounds, and purified TDP1 in a final concentration 1.5 nM. The reaction mixtures were incubated at a constant temperature of 26 °C in a POLARstar OPTIMA fluorimeter (BMG LABTECH, GmbH, Ortenberg, Germany). Fluorescence intensity was measured (Ex485/Em520 nm) every 1 min for 10 min. The average values of the half maximal inhibitory concentration (IC50) were determined using an eleven-point concentration response curve and calculated using MARS Data Analysis 2.0 (BMG LABTECH). The 50% inhibitory concentration (IC50) was defined as the concentration of the compound that inhibited 50% of the enzyme activity when compared to the untreated controls. At least three independent experiments were carried out to obtain the IC50 values. To determine the kinetic parameters of the TDP1 enzymatic reaction, the apparent maximum rate of enzymatic reaction (Vmax), Michaelis constant (KM), possible inhibition mechanism, and steady-state kinetic experiments were carried out at 5 fixed concentrations of the substrate, with variation in the inhibitor concentrations. The standard reaction mixtures (200 μL) contained reaction buffer components; 50 nM, 100 nM, 200 nM, 500 nM, or 1000 nM substrate; an inhibitor; and 1.5 nM recombinant human TDP1. The initial kinetic curves were obtained in three independent experiments and statistically processed in OriginPro 8.6.0 (OriginLab, Northampton, MA, USA).

[2] = Colorimetric cytotoxicity test, HEK293FT; type: cell-based; details: human, HEK293FT cells, intrinsic cytotoxicity
Source text: (§2) The low intrinsic cytotoxicity of the additional drug component in the clinically used anticancer cocktails with traditional drugs is very important for treatment. This approach in chemotherapy can reduce the potential resulting toxic load on the body in the case of a combined action of these inhibitors on the activity of several targets. […] The effects of the tested compounds on cell survival are shown on Figure 4 and the CC50 values for three cell lines are shown in Table 1. The intrinsic cytotoxicity of a number of the studied compounds is quite high, namely, they have close IC50 values against the TDP1 and CC50 values on one or several studied cell lines. Most of the compounds generally were more toxic for the HEK293FT and HeLa cell lines than for the HEK293A cell line (Table 1 and Figure 4). The cytotoxicity of the three leader compounds, 7g, 10a, and 7h, was quite high. […] Compound 10b was one of the least toxic among the ten tested compounds.
(§3) Cytotoxicity of the compounds was examined against human cell lines HEK293A (human embryonic kidney)—WT, TDP1 deficient (Tdp1-/-), PARP1 deficient (PARP1-/-), and HeLa (cervical cancer) using an EZ4U colorimetric test (Biomedica, Vienna, Austria). The HEK293A cell line was obtained from Thermo Fisher Scientific (Waltham, MA, USA), and the HeLa cell line was obtained from the Russian Cell Culture Collection (RCCC) Institute of Cytology RAS, St. Petersburg, Russia. The cells were grown in DMEM/F12 medium (Gibco, Thermo Fisher Scientific, Waltham, MA, USA), with 1x GlutaMAX (Gibco, Thermo Fisher Scientific, Waltham, MA, USA), 50 IU/mL penicillin, 50 μg/mL streptomycin (MP Biomedicals), and in the presence of 10% fetal bovine serum (Biolot, Saint-Petersburg, Russia) in a 5% CO2 atmosphere. Cells were grown in the presence of 1% DMSO in the control wells. After the formation of a 30–50% monolayer, the tested compounds were added to the medium, and the cell culture was monitored for 3 days. The values were normalized to their own control in each case. At least three independent experiments were carried out. The 50% cytotoxic concentration (CC50) was defined as the compound concentration that reduced the cell viability by 50% when compared to the untreated controls. The compound concentration that caused 50% cell growth inhibition was determined using OriginPro 8.6.0 software (OriginLab, Northampton, MA, USA). The measurements were carried out in three independent experiments.

[3] = EZ4U colorimetric cytotoxicity test, HEK293A; type: cell-based; details: human, HEK293A cells; intrinsic cytotoxicity, 3 days; read-out: HEK293A CC50
Source text: as §2, §3

[4] = EZ4U colorimetric cytotoxicity test, HeLa; type: cell-based, human; details: human, HeLa cells; intrinsic cytotoxicity, compound alone, 3 days
Source text: as §2, §3

[5] = biological target: T1, TDP1; assay: Steady-state kinetics of the TDP1 reaction (Vmax, KM, type of inhibition); type: biochemical; design: Vmax: unit not given here; details: for Type of inhibition of TDP1 enzyme reaction: steady-state conditions, fall in both Vmax and KM with increasing inhibitor
Source text: The reversible enzyme inhibitors were classified as competitive, uncompetitive, non-competitive, or mixed, depending on the binding of the enzyme, to the enzyme–substrate complex (ES) or to the enzyme–substrate–inhibitor triple complex (ESI). The enzyme could bind the inhibitor at the different steps of catalysis (before or after the substrate) and at the substrate-binding site or another site. The effect of the inhibitor on enzymatic activity can be analyzed using graphical representations of the Michaelis–Menten equation. […] TDP1 has a catalytic pocket with a narrow positively charged cleft where it binds DNA and with a relatively large cleft that contains a mixed charge distribution for the TOP1 fragment binding. It is known that TDP1 hydrolyzes the DNA–TOP1 adducts via two coordinated nucleophilic attacks of two His residues (His263 and His493) with the covalent intermediate complex formation. The enzyme reaction catalyzed by TDP1 could be inhibited in two steps: the first one is the inhibition of the TDP1 binding to the DNA substrate (the nucleophilic attack of His263). The second step is releasing TDP1 from the transition complex (nucleophilic attack by a water molecule activated by His493). Inhibition of the second step prevents the release of the DNA 3′-phosphate product from the DNA–TDP1 complex. Spinocerebellar ataxia with axonal neuropathy (SCAN1) is a neurological disease that is caused by a TDP1 His493Arg mutation. This mutation prevents the second step of hydrolysis of the intermediate complex and the enzyme remains covalently bound to DNA [47]. The uncompetitive inhibitors also prevent the second step of the reaction, stabilizing the enzyme–DNA covalent complex, which can lead to the accumulation of the single-strand breaks in the cell.
as §1
Table S25 Dependence of TDP1 reaction values V max and K M on the concentration of inhibitors
[7g], mM V max Standard Error K M Standard Error
[7h], mM V max Standard Error K M Standard Error
[10a], mM V max Standard Error K M Standard Error
[10b], mM V max Standard Error K M Standard Error

[6] = test system: TDP1; design: method as in PMID 27933897, PMID 30076000, PMID 31619021, doi:10.1134/S1068162017010125, PMID 30396105; details: cited from earlier work
[7] = inhibitor 0.4 mM (so in the source)
[8] = inhibitor 0.8 mM (so in the source)
[9] = inhibitor 1.6 mM (so in the source)
[10] = inhibitor 3.2 mM (so in the source)
[11] = inhibitor 6.4 mM (so in the source)

T1 sequence (Q9NUW8 whole entry): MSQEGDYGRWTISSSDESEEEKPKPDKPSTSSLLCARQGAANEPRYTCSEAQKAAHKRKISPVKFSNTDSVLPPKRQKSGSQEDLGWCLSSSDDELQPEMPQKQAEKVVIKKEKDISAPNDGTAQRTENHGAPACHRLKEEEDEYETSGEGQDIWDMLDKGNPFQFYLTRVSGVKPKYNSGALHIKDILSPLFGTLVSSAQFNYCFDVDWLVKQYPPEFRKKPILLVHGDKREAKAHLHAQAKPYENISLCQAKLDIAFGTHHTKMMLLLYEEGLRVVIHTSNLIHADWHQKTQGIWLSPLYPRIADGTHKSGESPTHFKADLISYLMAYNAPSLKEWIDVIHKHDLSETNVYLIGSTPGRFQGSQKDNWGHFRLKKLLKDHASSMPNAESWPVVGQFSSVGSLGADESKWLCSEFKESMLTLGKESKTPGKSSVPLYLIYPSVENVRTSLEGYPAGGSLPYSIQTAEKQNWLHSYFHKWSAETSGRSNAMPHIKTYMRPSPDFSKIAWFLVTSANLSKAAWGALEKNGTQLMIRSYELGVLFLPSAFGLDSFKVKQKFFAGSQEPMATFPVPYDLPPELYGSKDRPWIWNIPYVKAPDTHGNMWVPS

## CC(=O)C1=C(O)C=C2Oc3c(C(=O)CSC(=S)N(C)C)c(O)c(C)c(O)c3[C@@]2(C)C1=O [7a, (2R)-4-acetyl-10-{2-[(dimethylcarbamothioyl)sulfanyl]acetyl}-5,11,13-trihydroxy-2,12-dimethyl-8-oxatricyclo [7.4.0.0^2,7]trideca-1(13),4,6,9,11-pentaen-3-one]
[1]
  IC50: 5.4 ± 2.9 µM
[2]
  CC50 at 3 days: > 50 µM
[3]
  CC50 at 3 days: > 50 µM
[4]
  CC50 at 3 days: 13 ± 0.5 µM

## CC(=O)C1=C(O)C=C2Oc3c(C(=O)CSC4=NCCS4)c(O)c(C)c(O)c3[C@@]2(C)C1=O [7b, (2R)-4-acetyl-10-[2-(4,5-dihydro-1,3-thiazol-2-ylsulfanyl)acetyl]-5,11,13-trihydroxy-2,12-dimethyl-8-oxatricyclo[7.4.0.0^2,7]trideca-1(13),4,6,9,11-pentaen-3-one]
[1]
  IC50: 4.4 ± 1 µM
[2]
  CC50 at 3 days: 16 ± 5 µM
[3]
  CC50 at 3 days: > 50 µM
[4]
  CC50 at 3 days: 11 ± 0.5 µM

## CC(=O)C1=C(O)C=C2Oc3c(C(=O)CSc4nnc(N)s4)c(O)c(C)c(O)c3[C@@]2(C)C1=O [7c, (2R)-4-acetyl-10-{2-[(5-amino-1,3,4-thiadiazol-2-yl)sulfanyl]acetyl}-5,11,13-trihydroxy-2,12-dimethyl-8-oxatricyclo[7.4.0. 0^2,7]trideca-1(13),4,6,9,11-pentaen-3-one]
[1]
  IC50: 4.3 ± 0.5 µM
[2]
  CC50 at 3 days: 35 ± 2 µM
[3]
  CC50 at 3 days: > 50 µM
[4]
  CC50 at 3 days: 33 ± 2 µM

## CC(=O)C1=C(O)C=C2Oc3c(C(=O)CSc4nnc[nH]4)c(O)c(C)c(O)c3C2(C)C1=O (stereo not shown) [7d]
[1]
  IC50: 25.2 ± 6.5 µM

## CC(=O)C1=C(O)C=C2Oc3c(C(=O)CSc4nc5ccccc5o4)c(O)c(C)c(O)c3C2(C)C1=O (stereo not shown) [7e]
[1]
  IC50: 3.2 ± 0.5 µM
[2]
  CC50 at 3 days: 4.5 ± 1 µM
[3]
  CC50 at 3 days: 26 ± 2 µM
[4]
  CC50 at 3 days: 2.9 ± 0.2 µM

## CC(=O)C1=C(O)C=C2Oc3c(C(=O)CSc4nc5ccccc5[nH]4)c(O)c(C)c(O)c3[C@@]2(C)C1=O [7f, (2R)-4-acetyl-10-[2-(1H-1,3-benzodiazol-2-ylsulfanyl)acetyl]-5,11,13-trihydroxy-2,12-dimethyl-8-oxatricyclo[7.4.0.0^2,7]trideca-1(13),4,6,9,11-pentaen-3-one]
[1]
  IC50: 2.4 ± 1 µM
[2]
  CC50 at 3 days: 10 ± 2 µM
[3]
  CC50 at 3 days: > 50 µM
[4]
  CC50 at 3 days: 13 µM

## CC(=O)C1=C(O)C=C2Oc3c(C(=O)CSc4nc5ccccc5s4)c(O)c(C)c(O)c3C2(C)C1=O (stereo not shown) [7g]
[1]
  IC50: 1.7 ± 0.6 µM
[2]
  CC50 at 3 days: 3 ± 1 µM
[3]
  CC50 at 3 days: 3.5 ± 0.3 µM
[4]
  CC50 at 3 days: 2 ± 0.6 µM
[5]; [7]
  Vmax: 35.4
[5]; [8]
  Vmax: 25.6
[5]; [9]
  Vmax: 23.0
[5]; [10]
  Vmax: 19.4
[5]; [11]
  Vmax: 10.9
[5]
  Type of inhibition of TDP1 enzyme reaction: uncompetitive

## CC(=O)C1=C(O)C=C2Oc3c(C(=O)CSc4ccc(Cl)cc4)c(O)c(C)c(O)c3C2(C)C1=O (stereo not shown) [7h]
[1]
  IC50: 2.2 ± 0.5 µM
[2]
  CC50 at 3 days: 4 ± 1 µM
[3]
  CC50 at 3 days: 10 ± 2 µM
[4]
  CC50 at 3 days: 2.5 ± 0.5 µM
[5]; [7]
  Vmax: 31.0
[5]; [8]
  Vmax: 26.7
[5]; [9]
  Vmax: 18.5
[5]; [10]
  Vmax: 15.3
[5]; [11]
  Vmax: 11.2
[5]
  Type of inhibition of TDP1 enzyme reaction: uncompetitive

## CC(=O)C1=C(O)C=C2Oc3c(C(=O)CSc4ccccn4)c(O)c(C)c(O)c3[C@@]2(C)C1=O [7i, (2R)-4-acetyl-5,11,13-trihydroxy-2,12-dimethyl-10-[2-(pyridin-2-ylsulfanyl)acetyl]-8-oxatricyclo[7.4.0. 0^2,7]trideca-1(13),4,6,9,11-pentaen-3-one]
[1]
  IC50: 11.9 ± 0.4 µM

## CC(=O)C1=C(O)C=C2Oc3c(C(=O)CSc4ncccn4)c(O)c(C)c(O)c3[C@@]2(C)C1=O [7j, (2R)-4-acetyl-5,11,13-trihydroxy-2,12-dimethyl-10-[2-(pyrimidin-2-ylsulfanyl)acetyl]-8-oxatricyclo[7.4.0. 0^2,7]trideca-1(13),4,6,9,11-pentaen-3-one]
[1]
  IC50: 16.9 ± 2.4 µM

## CC(=O)C1=C(O)C=C2Oc3c(C(=O)CSc4ncccc4C(=O)O)c(O)c(C)c(O)c3C2(C)C1=O (stereo not shown) [7k]
[1]
  IC50: 19.6 ± 2.8 µM

## CC(=O)C1=C(O)C=C2Oc3c(C(=O)C[S+]([O-])c4ccc(Cl)cc4)c(O)c(C)c(O)c3[C@@]2(C)C1=O (stereo partly shown) [10b]
[2]
  CC50 at 3 days: 20 ± 3 µM
[3]
  CC50 at 3 days: > 50 µM
[4]
  CC50 at 3 days: 27 ± 2 µM
[5]; inhibitor 0.2 mM (so in the source)
  Vmax: 18.7
[5]; [7]
  Vmax: 10.7
[5]; [8]
  Vmax: 8.5
[5]; [9]
  Vmax: 6.3
[5]
  Type of inhibition of TDP1 enzyme reaction: uncompetitive

## CC(=O)c1c(O)c(C)c(O)c2c1OC1=CC(=O)/C(=C(/C)NCCCc3cc(C(C)(C)C)c(O)c(C(C)(C)C)c3)C(=O)[C@@]12C [compound 2]
[6]
  IC50: 0.16 µM

## CC(=O)C1=C(O)C=C2Oc3c4c(c(C)c(O)c3[C@@]2(C)C1=O)O/C(=C\c1ccc(Br)cc1)C4=O [compound 3]
[6]
  IC50: 0.15 µM

## CC(=O)C1=C(O)C=C2Oc3c(C(=O)CSC#N)c(O)c(C)c(O)c3[C@@]2(C)C1=O [compound 5]
[6]
  IC50: 1.16 µM
